Measurements reported in PMC6264390, “Design, Synthesis and Structure-activity Studies of Rhodanine Derivatives as HIV-1 Integrase Inhibitors” (Molecules, 2010).
Like-named read-outs stand apart in the source and are kept apart here.

Key:
HIV-1 IN = molecular target: T1, HIV-1 IN (Human immunodeficiency virus type 1 group M subtype B, UniProt P12497); assay: In vitro IN inhibition assay (3’-processing and strand transfer); format: biochemical; settings: Mn2+ cofactor (7.5 mM MnCl2)
T1 construct: pre-incubated with purified recombinant IN (at a final concentration of 200 nM); made in house
Method in brief: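 Recombinant HIV-1 IN (200 nM) preincubated with compound 30 min at 30 °C in MnCl2-containing buffer (MgCl2 plus PEG for Mg2+ format), then 1 h with 20 nM 5'-32P-labeled 21-mer duplex. 3'-processing and strand-transfer products resolved on denaturing gels, phosphorimager-quantified; IC50 from log-concentration versus % inhibition.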

[1] = tested on: HT 29 colon cancer cell line; assay: MTT cytotoxicity assay, HT 29; format: cell-based; settings: Homo sapiens, 72 h
Source text: Human melanoma cell line MDA-MB 435, pancreatic cancer cell line Panc-1, and colon cancer cell line HT 29 were purchased from the American Type Cell Culture (Manassas, VA, USA). HCT 116 p53^+/+ and HCT 116 p53^−/^− were kindly provided by Dr. Bert Vogelstein, Johns Hopkins Medical Institutions (Baltimore, MD, USA). HCT 116 p53^+/+, HCT116 p53^−/^−, and HT 29 cells were maintained as monolayer cultures in RPMI 1640 supplemented with 10% fetal bovine serum (FBS; Gemini-Bioproducts, Woodland, CA, USA) and 2 mmol/L L-glutamine at 37 °C in a humidified atmosphere of 5% CO2. Similarly, MDA-MB 435 and Panc-1 cells were maintained in Dulbecco’s modified Eagle’s medium (DMEM) supplemented with 10% fetal bovine serum as described above. […]
Cytotoxicity was assessed by 3-(4,5-dimethylthiazol-2-yl)-2,5-diphenyltetrazolium bromide (MTT) assay as previously described. […]
After 72 h exposure to the test compounds, MTT solution (5 mg/mL; 20 μL) was added to each well and cells were incubated for 4 h at 37 °C. […] The absorbance intensity was measured at 570 nm against appropriate blank controls using a microplate reader (Molecular Devices, Sunnyvale, CA, USA). […]

[2] = read-out: Inhibition of IN catalytic activity IC50, 3’-Processing
[3] = read-out: Inhibition of IN catalytic activity IC50, Strand Transfer

| Structure (SMILES) | IC50 (HIV-1 IN; [2]) [µM] | IC50 (HIV-1 IN; [3]) [µM] | GI50 [1] [µM] |
| --- | --- | --- | --- |
| O=C(Nc1ccc(Cl)cc1)C(=S)NN1C(=O)C(=Cc2ccc([N+](=O)[O-])o2)SC1=S [Compound 13, N-(4-chlorophenyl)-2-{5-[(5-nitro-2-furyl)methylene]-4-oxo-2-thioxo-1,3-thiazolidin-3-yl}amino-2-thioxoacetamide] | 68 ± 46 | 41 ± 27 | > 10 |
| COc1ccc(NC(=O)C(=S)NN2C(=O)C(=Cc3ccc([N+](=O)[O-])o3)SC2=S)cc1 [Compound 17, N-(4-methoxyphenyl)-2-{5-[(5-nitro-2-furyl)methylene]-4-oxo-2-thioxo-1,3-thiazolidin-3-yl}amino-2-thioxoacetamide] | 77 ± 10 | 60 | 9.6 |
